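How tested: cells in 96-well plates exposed to compound for 48 hours at five concentrations. The concentration for full growth arrest is given as TGI.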 Where a SMILES comes first, the peptide text is derived from it. The star is where a group is joined. Boc = CC(C)(C)OC(=O)*; OBn = c1ccc(CO*)cc1

Common to all, as to assay: inhibition of tumour cell growth, NCI panel, 48 h
The test system of assay [1] is A549 NSCLC.
Assay [2] deals with HL-60(TB) leukemia.
For assay [3], the system named is MDA-MB-435.
The subject of assay [4] is NCI/ADR-RES ovarian.
Assay [5] has as its system SF-268 CNS.
The subject of assay [6] is SF-539 CNS.
The subject of assay [7] is SK-OV-3 ovarian.
The subject of assay [8] is U251 CNS.
In assay [9] the test system is UACC-62 melanoma.
Assay [10] deals with OVCAR-4 ovarian.

Consider `O=c1[nH]c(N/N=C\C(O)C(O)C(O)CO)nc2ccccc12` (centres undefined), for which the TGI in [1], in [2], in assay [3], in assay [4], in assay [5] and in [6] was > 100 µM each time. Further, the TGI in assay [7], in assay [8] and in assay [9] was > 100 µM each time.
For `CCO/C(O)=C(/C(=N)N1CCCC1)C(=O)Nc1cccc(C(F)(F)F)c1`, the TGI in [1], in assay [2], in [3], in assay [4], in [10] and in assay [5] was > 100 µM throughout. Besides, the TGI is 51.9 µM in assay [6], > 100 µM in assay [7], > 100 µM in [8] and > 100 µM in assay [9].
Consider `O=S1(=O)c2ccccc2NC(=S)CC1c1ccccc1` (centres undefined), for which the TGI in assay [1], in [2], in [3], in [4], in assay [10] and in assay [5] was > 100 µM throughout. Moreover, the TGI in assay [7], in assay [8] and in assay [9] was > 100 µM throughout.
Consider `CCOC(=O)C(CS)NC(=O)CCCCCCCC(=O)NC(CS)C(=O)OCC` (centres undefined), for which the TGI in [1], in assay [2], in assay [3], in [4], in assay [10] and in [6] was > 100 µM in each case. For the same compound, the TGI in assay [7], in assay [8] and in assay [9] was > 100 µM each time.
As for `O=C(N[C@H]1c2ccsc2/C(=N/O)[C@H]1O)C(F)(F)F`, the TGI in assay [1], in assay [2], in assay [3], in assay [4], in [5] and in assay [6] was > 100 µM each time. For the same compound, the TGI in [7], in assay [8] and in assay [9] was > 100 µM throughout.
For `CCc1ccc2c(c1)CC1(C2)Cc2cc3c(cc2C1)C(=O)CC3` (centres undefined), the TGI in assay [1] was 71.8 µM; in assay [2] it was 15.6 µM; in assay [3], 8.53 µM; in [4], > 100 µM; in assay [10], 65.4 µM; in assay [6], 61.4 µM. Besides, the TGI in [7], in assay [8] and in assay [9] was > 100 µM throughout.
Consider `CC(C)(C)OC(=O)NC(Cc1ccccc1)C(=O)NC(Cc1ccccc1)C(=O)NCC(=O)OCc1ccccc1` (stereo not drawn) (Boc-Phe-Phe-Gly-OBn; configuration not given here), for which the TGI in assay [2] is 57.6 µM; in [3] it was > 100 µM; in [4] it was > 100 µM; in [10], > 100 µM; in assay [5] it was 29.4 µM; in assay [6] it was 44.1 µM. Further, the TGI turned out to be 46 µM in assay [7], 36.3 µM in [8] and 38.7 µM in [9].
Regarding `C[C@]12CC[C@@H]3c4ccc(OC(=O)c5ccccc5)cc4CC[C@H]3[C@@H]1CC[C@@H]2Oc1c2ccccc2nc2ccccc12`, the TGI in assay [1] is 13.2 µM; in assay [2], 40.4 µM; in [3] it was 12.9 µM; in assay [4] it was > 50 µM; in assay [10], > 50 µM; in [5] it was 20.8 µM. Further, the values for the TGI in [7], in [8] and in assay [9] were > 50 µM, 15.4 µM and > 50 µM, respectively.
With `COc1cc(C2S/C(=C/c3ccccc3)C(=O)N2c2ccc(Cl)c(Cl)c2)cc(OC)c1OC` (centres undefined), the TGI is > 100 µM in assay [1]; > 100 µM in assay [2]; > 90.4 µM in assay [3]; > 100 µM in assay [4]; > 100 µM in assay [10]; > 100 µM in assay [5]. Moreover, the TGI in assay [7] and in assay [8] was > 100 µM each time.
As to `O=C1c2cccc3cccc(c23)C(=O)N1CCCNOCCONCCCN1C(=O)c2cccc3cccc(c23)C1=O`, the TGI in assay [1], in [2], in assay [3], in assay [4], in assay [10] and in [5] was > 100 µM throughout. Further, the TGI in [7], in assay [8] and in assay [9] was > 100 µM in each case.
For `Cn1c2ccccc2c2c3c(c4c5ccccc5n(C)c4c21)C(=O)c1ccccc1C3=O`, the TGI in assay [1] was > 100 µM; in assay [2], > 100 µM; in [3], > 100 µM; in assay [4], > 100 µM; in assay [10], > 100 µM; in assay [6], 51.1 µM. Further, the TGI in assay [7] was > 100 µM; in assay [8] it was 45.9 µM; in [9] it was > 100 µM.
On to `O=c1[nH]nc(Cc2ccccc2)n1-n1cnnc1`, for which the TGI in assay [1], in assay [3], in assay [4], in assay [10], in assay [5] and in assay [6] was > 100 µM in each case. In addition, the TGI in [7], in [8] and in assay [9] was > 100 µM each time.
Consider `O=C(NCCCNCCNC(=O)c1cc(-c2ccccc2)nc2ccccc12)c1cc(-c2ccccc2)nc2ccccc12`, for which the TGI came out at 3.13 µM in [1]; 4.3 µM in assay [2]; 3.15 µM in [3]; 4.12 µM in assay [4]; 4.08 µM in assay [10]; 3.57 µM in [6]. Further, the TGI amounted to 6.34 µM in assay [7] and 3.24 µM in assay [8].
As for `CN(C)CCNc1ncnc2nc(-c3ccc4ccccc4c3)[nH]c12`, the TGI in [1], in assay [2], in assay [3], in assay [4], in assay [10] and in assay [5] was > 100 µM throughout. Further, the TGI in assay [7], in assay [8] and in assay [9] was > 100 µM in each case.
In the case of `COc1cc(S(=O)(=O)Nc2ccc(-c3csc(N4C(=O)CSC4c4ccccc4)n3)cc2)ccc1Cl` (centres undefined), the TGI is > 100 µM in assay [1]; 55.7 µM in assay [2]; > 100 µM in [3]; > 100 µM in assay [4]; > 100 µM in assay [10]; > 100 µM in assay [5]. The TGI in [6] was > 100 µM; in assay [7] it was > 100 µM; in [9] it was 39.6 µM.

The values above are taken from PubChem BioAssay (NCI).
